{"source": "paper PMC8035258", "about": "(ChemMedChem, 2021)", "key": {"[1]": {"test_system": "22Rv1 prostate cancer cells", "conditions": "read-out: 22Rv1 IC50, clinical agents; cited from earlier work"}, "[2]": {"target": "Mitochondrial respiratory complex II (Mus musculus, UniProt Q8K2B3+Q9CQA3+Q9CXV1+Q9CZB0)", "sequence (Q8K2B3 43-664)": "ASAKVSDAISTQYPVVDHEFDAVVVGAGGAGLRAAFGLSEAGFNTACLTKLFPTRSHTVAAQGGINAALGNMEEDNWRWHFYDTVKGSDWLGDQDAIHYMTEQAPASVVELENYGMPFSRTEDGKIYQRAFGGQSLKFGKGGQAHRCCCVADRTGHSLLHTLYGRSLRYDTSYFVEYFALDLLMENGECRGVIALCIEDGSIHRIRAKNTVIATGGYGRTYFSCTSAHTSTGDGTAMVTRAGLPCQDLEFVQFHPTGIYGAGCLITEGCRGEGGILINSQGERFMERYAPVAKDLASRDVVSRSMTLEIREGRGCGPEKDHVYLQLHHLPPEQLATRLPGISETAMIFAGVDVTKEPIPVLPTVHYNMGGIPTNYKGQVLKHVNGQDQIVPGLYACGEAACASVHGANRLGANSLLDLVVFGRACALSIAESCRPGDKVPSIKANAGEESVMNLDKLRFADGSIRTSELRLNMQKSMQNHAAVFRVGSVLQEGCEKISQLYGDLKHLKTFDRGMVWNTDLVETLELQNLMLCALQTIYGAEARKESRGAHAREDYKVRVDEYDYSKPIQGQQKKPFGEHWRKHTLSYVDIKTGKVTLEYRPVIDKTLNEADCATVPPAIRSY", "sequence (Q9CQA3 31-282)": "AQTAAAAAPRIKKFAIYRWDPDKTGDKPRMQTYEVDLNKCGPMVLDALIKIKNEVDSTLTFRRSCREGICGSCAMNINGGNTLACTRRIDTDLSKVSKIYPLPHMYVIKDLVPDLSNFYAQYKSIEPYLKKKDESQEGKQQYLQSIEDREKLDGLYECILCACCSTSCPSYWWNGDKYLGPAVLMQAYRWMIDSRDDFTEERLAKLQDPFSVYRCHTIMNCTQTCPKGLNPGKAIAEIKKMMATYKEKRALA", "sequence (Q9CZB0 30-169)": "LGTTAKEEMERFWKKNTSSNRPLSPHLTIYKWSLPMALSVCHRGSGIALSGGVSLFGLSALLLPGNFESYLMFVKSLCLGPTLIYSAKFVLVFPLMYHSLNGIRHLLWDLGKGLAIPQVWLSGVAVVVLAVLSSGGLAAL", "sequence (Q9CXV1 57-159)": "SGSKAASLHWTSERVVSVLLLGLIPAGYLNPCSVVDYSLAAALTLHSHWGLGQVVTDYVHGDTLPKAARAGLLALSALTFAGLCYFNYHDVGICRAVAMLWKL", "test": "Complex II inhibition assay", "assay_type": "biochemical"}, "[3]": {"test_system": "22Rv1 prostate cancer cells", "test": "MTS cytotoxicity assay in 22Rv1 prostate cancer cells", "assay_type": "cell-based", "conditions": "100 μM up to 72 hours"}, "[4]": {"test_system": "TNBC MDA-MB-468 cells", "test": "MTS cytotoxicity assay in MDA-MB-468 cells", "assay_type": "cell-based"}, "[5]": {"test_system": "low tumorigenic human endothelial kidney (HEK293) cells", "test": "MTS cytotoxicity assay in HEK293 cells", "assay_type": "cell-based", "conditions": "Homo sapiens, HEK293, 72 h, read-out: HEK293 IC50"}, "[6]": {"test_system": "CII", "conditions": "read-out: CII IC50; rat heart mitochondria; cited from earlier work"}, "[7]": {"test_system": "breast cancer", "conditions": "200–300 mg/day, nine patients, stable disease for 4–8 months; cited from earlier work"}, "[8]": {"test_system": "TTK", "conditions": "100 μM, KinomeScan; cited from earlier work"}, "[9]": {"test_system": "IRAK1", "conditions": "100 μM, KinomeScan; cited from earlier work"}, "[10]": {"test_system": "CII", "conditions": "read-out: CII IC50, cited from earlier work"}}, "note": "Like-named read-outs stand apart in the source and are kept apart here.", "data": [{"compound": "CC(O)c1cc(C(=O)N[C@@H](C)Cn2ccc(-c3ccc(C#N)c(Cl)c3)n2)[nH]n1", "note": "(some centres unmarked) [darolutamide]", "values": [{"measurement": "IC50", "setting": "[1]", "result": "46 ± 10", "unit": "µM"}]}, {"compound": "CC1=Nc2ccc(Cl)cc2S(=O)(=O)N1", "note": "[Diazoxide, 7-chloro-3-methyl-2H-1,2,4-benzothiadiazine 1,1-dioxide, reference compound]", "values": [{"measurement": "IC50", "setting": "[2]", "result": "1236 ± 2.5", "unit": "µM"}, {"measurement": "% Inhibition CII (100 μM)", "setting": "[2]; 100 μM, mouse liver mitochondria, mean ±SD of n = 4, listed as DZX", "result": "no CII inhibition activity"}, {"measurement": "inhibition at 100 µM", "setting": "[2]; read-out: % Inhibition CII (100 μM), 100 μM, mouse liver mitochondria, mean ±SD of n = 4", "result": 9, "unit": "%"}, {"measurement": "effect to reduce cell viability of prostate cancer cells", "setting": "[3]", "result": "no effect"}, {"measurement": "effect to reduce cell viability of breast cancer cells", "setting": "[4]; 100 μM up to 72 hours", "result": "no effect"}, {"measurement": "SI (Selectivity Index)", "setting": "[4]; MDA-MB-468 over HEK293 cells", "result": 1.26}, {"measurement": "IC50", "setting": "[4]; read-out: MDA-MB-468 IC50, 72 hours, mean ±SD of n=3", "result": "434 ± 26.2", "unit": "µM"}, {"measurement": "IC50", "setting": "[5]", "result": "547 ± 34.1", "unit": "µM"}, {"measurement": "IC50", "setting": "[6]", "result": 32, "unit": "µM"}, {"measurement": "response rate", "setting": "[7]", "result": 33, "unit": "%"}, {"measurement": "kinase inhibition", "setting": "[8]", "result": 15, "unit": "%"}, {"measurement": "kinase inhibition", "setting": "[9]", "result": 9, "unit": "%"}]}, {"compound": "CNC(=O)c1ccc(N2C(=S)N(c3cnc(C#N)c(C(F)(F)F)c3)C(=O)C23CCC3)cc1F", "note": "[apalutamide]", "values": [{"measurement": "IC50", "setting": "[1]", "result": "77 ± 17", "unit": "µM"}]}, {"compound": "COc1[nH]c(=O)c(C(=O)[C@@H](C)C[C@H](C)[C@@H](Cl)CCl)c(O)c1OC", "note": "[Atpenin A5, atpenin A5]", "values": [{"measurement": "inhibition at 0.1 µM", "setting": "[2]; read-out: % inhibition of CII at 0.1 μM", "result": 93, "unit": "%"}, {"measurement": "IC50", "setting": "[10]; positive control", "result": 0.0033, "unit": "µM"}, {"measurement": "IC50", "setting": "[10]; ubiquinone binding site (IIQ)", "result": "0.0036 to 0.01", "unit": "µM"}]}]}
